Measured values: patent publication US20230192787A1, “DIAGNOSIS METHODS, DIAGNOSTIC AGENTS, AND THERAPEUTIC AGENTS AGAINST ALZHEIMER'S DISEASE AND FRONTOTEMPORAL LOBAR DEGENERATION, AND SCREENING METHODS FOR THESE AGENTS” (National University Corporation Tokyo Medical and Dental …, priority 2013, published 2023)
“Also recorded” adds a separate entry of the source.

What was measured:
PGRN-KI mice [1] = experiment: Morris water maze test in FTLD model mice; type: in vivo, mouse; details: provided every day over 6 weeks from 6 weeks old
Experimental: In this test, the mice received a 60-second trial four times a day for 5 days. The time until each mouse reached the platform was measured.
Furthermore, the PGRN-KI mice were also subjected to six behavioral tests as in the case of Alzheimer's disease model mice described above. As a result, abnormalities regarding anxiety memory and anxiety-related memory were not observed in the open-field test, the light-dark box test, and the elevated plus maze test. […] Moreover, in the Morris water maze test, a statistically significant decrease was observed from the age of 3 months in the time during which the mice stayed in the target region or the number of times the mice passed through the target. […] Note that, in the Morris water maze test using the PGRN-KI mice, the mice received the 60-second trial four times a day for 5 days to learn the position of the platform (target region). […]
To be more specific, in accordance with the protocol shown in FIG. 21, a b-raf specific inhibitor vemurafenib or PBS was provided to the 6-week-old PGRN-KI mice every day over 6 weeks. Then, the behaviors of these mice were evaluated in the Morris water maze test and the fear-conditioning test. […]
Meanwhile, the therapeutic effect of thalidomide was also tested. […] The behaviors of these mice were evaluated by the above two tests. […]

[2] = tested on: phosphorylated b-RAF protein; experiment: Western blot of cerebral cortexes of treated PGRN-KI mice, phosphorylated b-RAF; type: in vivo, mouse
Experimental: (§1) FIG. 27 is a figure for illustrating the result of western blot analysis on the cerebral cortexes of wild-type mice (WT) and the PGRN-KI mice to which vemurafenib was administered. […] “Anti-p-Braf” and “Anti-p-PKC” respectively show the analysis result of phosphorylated b-RAF protein and the analysis result of phosphorylated PKC protein. […] The significant differences were evaluated based on the P-value calculated by Student's independent t-test.
(§2) FIG. 28 is a figure for illustrating the result of western blot analysis on the cerebral cortexes of the PGRN-KI mice to which thalidomide was administered. […] “Anti-p-Braf”, “Anti-Braf”, and “Anti-p-PKC” respectively show the analysis result of phosphorylated b-raf protein, the analysis result of b-raf protein, and the analysis result of phosphorylated PKC protein. […] Further, in the figure, one asterisk indicates p<0.05 in Student's independent t-test, and two asterisks indicate p<0.01 in Student's independent t-test.
(§3) Moreover, the cerebral cortexes of the PGRN-KI mice treated with the agent were analyzed by western blot.

PGRN-KI mice [3] = experiment: In vivo two-photon imaging of synaptic spines in retrosplenial cortex of PGRN-KI mice (recovery experiment); set-up: species or system mouse
Experimental: (§4) Two-photon imaging of dendritic spine was performed using a laser-scanning microscope system FV1000MPE2 (manufactured by Olympus Corporation) equipped with an upright microscope (BX61WI, manufactured by Olympus Corporation, a water-immersion objective lens (XLPlanN25xW; numerical aperture, 1.05), and a pulsed laser (MaiTai HP DeepSee, manufactured by Spectra Physics). In the imaging, EGFP was excited by light at a wavelength of 890 nm, and scanned in a range of 500 to 550 nm. Moreover, the scanned region for three-dimensional imaging was 100×100 μm (1 μm Z-axis steps, 1024×1024 pixels).
(§5) Additionally, two weeks before the imaging, adeno-associated virus 1 (AAV1)-EGFP with the synapsin 1 promoter (titer: 1×10^10 vector genomes/mL, 1 μL) was injected into the retrosplenial cortex (−2.0 mm anteroposterior and 0.6 mm mediolateral from the bregma, depth 1 mm) of mice under anesthesia with 2.5% isoflurane. Then, two weeks thereafter, the dendritic spines of the first layer (layer 1) of the cerebral cortex were observed through a thinned skull window according to the method described in “Yang, G. et al., Nat. Protoc., 2010, Vol. 5, pp. 201 to 208.”
A pharmacological recovery experiment was conducted on the PGRN-KI mice as follows. […]
In addition, analyzed was whether or not vemurafenib and/or tau knockdown enabled recovery of spine related phenotype. […]

PGRN-KI mice [4] = experiment: Immunohistological analysis of protein aggregation in brains of PGRN-KI mice; type: in vivo, mouse
Description: To be more specific, as the first hypothesis, the aforementioned therapeutic effect by suppressing b-raf phosphorylation was presumably based on the elimination of protein aggregation in the nerve by vemurafenib or thalidomide. Accordingly, analyzed was the recovery effect of vemurafenib or thalidomide on the protein aggregation in the cerebral cortexes of the PGRN-KI mice.

[5] = tested on: phosphorylated PKC protein; experiment: Western blot of cerebral cortexes of treated PGRN-KI mice, phosphorylated PKC; type: in vivo, mouse
Experimental: as §1, §2, §3

PGRN-KI mice [6] = experiment: Fear-conditioning test in FTLD model mice; type: in vivo, mouse; details: provided every day over 6 weeks from 6 weeks old
Experimental: In this test, first, a mouse received a sound stimulus (65-dB white noise, 30 seconds) together with an electrical stimulus (0.4 mA, 2 seconds) on the foot. Then, after 24 hours, the mouse was measured for the frequency of the freezing reaction when the mouse received a sound stimulus but no electrical stimulus in the same chamber.
To be more specific, in accordance with the protocol shown in FIG. 21, a b-raf specific inhibitor vemurafenib or PBS was provided to the 6-week-old PGRN-KI mice every day over 6 weeks. Then, the behaviors of these mice were evaluated in the Morris water maze test and the fear-conditioning test. FIGS. 22 and 23 show the obtained result.
Meanwhile, the therapeutic effect of thalidomide was also tested. Note that thalidomide is known to suppress the TNF signal transduction pathway. Concretely, in accordance with the protocol shown in FIG. 24, thalidomide was administered to the PGRN-KI mice by peritoneal cavity injection every day for the same period as that in the protocol using the b-raf inhibitor. The behaviors of these mice were evaluated by the above two tests. FIGS. 25 and 26 show the obtained result.

5×FAD mice = experiment: In vivo two-photon imaging of dendritic spines after administering kinase inhibitors/activator; set-up: species or system mouse; details: 5×FAD mice (12 weeks old); for spine densities by morphological type (thin, mushroom, stubby) / spine dynamics: spine formation and stability: 36 hours and 60 hours after administration; for dendritic spine density (total spine density): layer 1 of retrosplenial cortex, 36 hours and 60 hours after administration by osmotic pump
Experimental: as §4, §5
Moreover, when the influence of kinase inhibition on dendritic spines was imaged, Alzet micro-osmotic pumps (model: 1003D, manufactured by Durect Corporation) filled with PBS/1% DMSO containing 1 μM Go6976 (manufactured by Calbiochem), 0.4 mM KN-93 (manufactured by Cayman Chemical), or 1 μM MLR1023 (manufactured by Glixx Laboratories) were implanted into mice under anesthesia with O2/isoflurane. […] Note that, regarding the PKC inhibitor Go6976, see Yan, Z. et al., Proc. Natl. Acad. Sci. U.S.A., 1999, Vol. 96, pp. 11607 to 11612. Regarding the CaMK inhibitor KN-93, see Galan, A. et al., Pain, 2004, Vol. 112, pp. 315 to 323. Regarding the Lyn activator MLR1023, see Saporito, M. S. et al., J. Pharmacol. Exp. Ther., 2012, Vol. 342, pp. 15 to 22.
In addition, the spine density, spine length, spine maximum diameter, and spine neck minimum diameter were measured from the obtained images using image analysis software IMARIS 7.2.2 (manufactured by Bitplane).
More concretely, the effect of the kinases on the synaptic pathology in the 5×FAD mice was analyzed by administering inhibitors and so forth against these kinases into the subarachnoid spaces of the mice. FIGS. 4 to 9 show the obtained result.

Compound | scores in the Morris water maze test (PGRN-KI mice [1]) | b-raf phosphorylation [2] | number of spines (PGRN-KI mice [3]; PGRN-KI mice (12 weeks old), vemurafenib 1.7 μM by osmotic pump for 3 days, shRNA imaged on Day 5) | spine volume (PGRN-KI mice [3]; PGRN-KI mice, trend, not a statistically significant difference) | FUS and p62 inclusion (IB) (PGRN-KI mice [4]) | transition of TDP43 into the cytoplasm (PGRN-KI mice [4]) | PKC phosphorylation [5] | scores in the fear-conditioning test (PGRN-KI mice [6]) | spine densities by morphological type (thin, mushroom, stubby) (5×FAD mice) | spine dynamics: spine formation and stability (5×FAD mice) | dendritic spine density (total spine density) (5×FAD mice)
CCCS(=O)(=O)Nc1ccc(F)c(C(=O)c2c[nH]c3ncc(-c4ccc(Cl)cc4)cc23)c1F [vemurafenib, N-{3-[5-(4-chlorophenyl)-1H-pyrrolo[2,3-b]pyridine-3-carbonyl]-2,4-difluorophenyl}propane-1-sulfonamide] | remarkably recovered the scores in the two tests | suppressed the b-raf phosphorylation | recovered the number of spines; also recorded: had a recovery effect on the number of spines | decreased the spine volume | no significant effect | no large change was observed | also suppressed the PKC phosphorylation | remarkably recovered the scores in the two tests | – | – | –
Cn1c2ccccc2c2c3c(c4c5ccccc5n(CCC#N)c4c21)CNC3=O [Go6976] | – | – | – | – | – | – | – | – | the decreases were recovered; also recorded: increased | enhanced the spine formation and stability | recovered the decrease of spines; also recorded: increased the total spine density
O=C1CCC(N2C(=O)c3ccccc3C2=O)C(=O)N1 (centres unmarked) [thalidomide] | beneficial effects were finally verified | the b-raf phosphorylation was suppressing | – | – | no significant effect | no large change was observed | the PKC phosphorylation was not suppressed | beneficial effects were finally verified | – | – | –
COc1ccc(S(=O)(=O)N(CCO)c2ccccc2CN(C)C/C=C/c2ccc(Cl)cc2)cc1 [KN-93] | – | – | – | – | – | – | – | – | the decreases were recovered | had a therapeutic effect on the spine formation and stability | recovered the decrease of spines
Cc1cccc(Oc2cnc(O)nc2)c1 [MLR1023] | – | – | – | – | – | – | – | – | the decreases were recovered | had a therapeutic effect on the spine formation and stability | recovered the decrease of spines
